Laboratory results from publication PMC5904222, “Synthesis and anticancer activity of multisubstituted purines and xanthines with one or two propynylthio and aminobutynylthio groups” (Medicinal Chemistry Research, 2018).
In brackets after ≈: the same amount, converted by molar mass.

Legend:
[1] = tested on: SNB-19 (human glioblastoma); test: WST-1 proliferation assay, SNB-19; assay type: cell-based; settings: SNB-19 cells, 72 h exposure; for IC50: Homo sapiens, SNB-19, 72 h, read-out: Antiproliferative activity IC50 SNB-19
Description: (§1) Compounds were evaluated for their anticancer activity using three cultured cell lines: SNB-19 (human glioblastoma, DSMZ - German Collection of Microorganisms and Cell Cultures, Braunschweig, Germany), C-32 (human amelanotic melanoma, ATCC-American Type Culture Collection, Manassas, VA, USA), MDA-MB-231 (human adenocarcinoma mammary gland, ATCC, Manassas, VA, USA), and HFF-1 (human fibroblast cell line, ATCC, Manassas, VA, USA). The cultured cells were kept at 37 °C and 5% CO2. The cells were seeded (1 × 10^4 cells/well/100 μL DMEM supplemented with 10% FCS and streptomycin and penicillin) using 96-well plates (Corning). The cells were counted in a hemocytometer (Burker’s chamber) using a phase contrast Olympus IX50 microscope equipped with Sony SSC-DC58 AP camera and Olympus DP10 digital camera.
(§2) The antiproliferative effect of the compounds obtained from both the cancer and the normal cells was determined using the Cell Proliferation Reagent WST-1 assay (Roche Diagnostics, Mannheim, Germany). This colorimetric assay is based on the viable cell’s ability to cause the bright red-colored stable tetrazolium salt (2-(4-iodophenyl)-3-(4-nitrophenyl)-5-(2,4-disulfophenyl)-2H-tetrazolium, monosodium salt) to cleave to the dark red soluble formazan by cellular enzymes. An expansion in the number of viable cells results in an increase in the overall activity of mitochondrial dehydrogenases in the sample. An increase in the amount of formazan dye formed correlates to the number of metabolically active cells in the culture. The formazan dye produced by metabolically active cells is quantified by a scanning ELISA reader that measures the absorbance of the dye solution at appropriate wavelengths. The examined cells were exposed to the tested compounds for 72 h at various concentrations between 0.1 and 100 μg/mL (prepared initially at a concentration of 1 mg/mL in DMSO). The control was performed in order to check that DMSO has no effect on the cells at the concentration used. The cells were incubated with WST-1 (10 μL) for 1 h and the absorbance of the samples was measured against a background control at 450 nm using a microplate reader with a reference wavelength at 600 nm. The results are expressed as the means of at least two independent experiments performed in triplicate. […] The IC50 values (a concentration of a compound that is required for 50% inhibition) were calculated from the dose–response relationship with respect to control.

[2] = tested on: C-32 (human amelanotic melanoma); test: WST-1 proliferation assay, C-32; assay type: cell-based; settings: C-32 cells, 72 h exposure; for IC50: Homo sapiens, C32, 72 h, read-out: Antiproliferative activity IC50 C-32
Description: as §1, §2

[3] = tested on: MDA-MB-231 (human adenocarcinoma mammary gland); test: WST-1 proliferation assay, MDA-MB-231; assay type: cell-based; settings: MDA-MB-231 cells, 72 h exposure; for IC50: Homo sapiens, MDA-MB-231, 72 h, read-out: Antiproliferative activity IC50 MDA-MB-231
Description: as §1, §2

[4] = tested on: HFF-1 (human fibroblast cell line); test: WST-1 proliferation assay, normal fibroblasts HFF-1; assay type: cell-based; settings: for IC50: read-out: Antiproliferative activity IC50 HFF-1
Description: as §1
as §2, with “The control was performed in order to check that DMSO has no effect on the cells at the concentration used.” left out

[5] = normal human fibroblasts HFF-1, 72 h exposure, WST-1

Structure (SMILES)	IC50 [1]	Antiproliferative activity IC50 SNB-19 [1]	IC50 [2]	IC50 [3]	IC50 [4, 5]	melting point	Antiproliferative activity IC50 C-32 [2]	Antiproliferative activity IC50 MDA-MB-231 [3]	cytotoxicity on the normal human fibroblasts (HFF-1), in words [4]	Antiproliferative activity IC50 HFF-1 [4, 5]
CCN(CC)CC#CCSc1nc2c(c(=O)[nH]c(=O)n2C)n1C [Compound 10d, 8-(4-diethylaminobut-2-ynylthio)-3,7-dimethylxanthine]	< 1.7 µg/mL	1.48 µg/mL	26.4 µg/mL (≈ 78.6 µM)	68.1 µg/mL (≈ 203 µM)	3.68 µg/mL (≈ 11 µM)	186 to 188 °C	–	–	–	–
C#CCSc1nc2c(c(=O)[nH]c(=O)n2C)n1C [Compound 9, 8-(prop-2-ynylthio)-3,7-dimethylxanthine]	> 100 µg/mL	191.10 µg/mL	> 100 µg/mL	> 100 µg/mL	154 µg/mL (≈ 614 µM)	252 to 253 °C	103.46 µg/mL	169.34 µg/mL	–	–
Cn1cnc2nc(SCC#CCN3CCCCC3)nc(SCC#CCN3CCCCC3)c21 [Compound 5b, 2,6-Di(4-N-piperidinylbut-2-ynylthio)-7-methylpurine]	4.64 µg/mL (≈ 9.9 µM)	–	6.39 µg/mL (≈ 13.6 µM)	7.35 µg/mL (≈ 15.7 µM)	3.98 µg/mL (≈ 8.49 µM)	130 to 132 °C	–	–	–	–
Cn1cnc2nc(SCC#CCN3CCCC3)nc(SCC#CCN3CCCC3)c21 [Compound 5a, 2,6-Di(4-N-pyrrolidinylbut-2-ynylthio)-7-methylpurine]	19.4 µg/mL (≈ 44 µM)	–	6.81 µg/mL (≈ 15.5 µM)	19.9 µg/mL (≈ 45.3 µM)	10 µg/mL (≈ 22.7 µM)	97 to 99 °C	–	–	–	–
C#CCSc1nc(SCC#C)c2c(ncn2C)n1 [Compound 4, 2,6-di(prop-2-ynylthio)-7-methylpurine]	15 µg/mL (≈ 54.7 µM)	–	–	–	10 µg/mL (≈ 36.4 µM)	162 to 164 °C	–	–	relatively weak cytotoxicity	–
Cn1cnc2nc(Cl)nc(SCC#CCN3CCCCC3)c21 [Compound 2a, 2-Chloro-6-(4-N-piperidinylbut-2-ynylthio)-7-methylpurine]	28.8 µg/mL (≈ 85.7 µM)	–	21 µg/mL (≈ 62.6 µM)	33.4 µg/mL (≈ 99.4 µM)	35.4 µg/mL (≈ 105 µM)	122 to 124 °C	–	–	–	–
Cn1c(SCC#CCN2CCOCC2)nc2c1c(=O)[nH]c(=O)n2C [Compound 10c, 8-(4-N-morpholinylbut-2-ynylthio)-3,7-dimethylxanthine]	< 1.7 µg/mL	1.69 µg/mL	223 µg/mL (≈ 637 µM)	6.54 µg/mL (≈ 18.7 µM)	5.87 µg/mL (≈ 16.8 µM)	174 to 176 °C	–	–	–	–
CCN(CC)CC#CCSc1nc(Cl)nc2nc(SCC#CCN(CC)CC)n(C)c12 [Compound 15d, 2-Chloro-6,8-di(diethylaminobut-2-ynylthio)-7-methylpurine]	2.9 to 5.3 µg/mL (≈ 6.05 to 11.1 µM)	2.91 µg/mL	2.9 to 5.3 µg/mL (≈ 6.05 to 11.1 µM)	10 µg/mL (≈ 20.9 µM)	1 µg/mL (≈ 2.09 µM)	88 to 90 °C	5.33 µg/mL	–	cytotoxic	–
Cn1c(SCC#CCN2CCCC2)nc2nc(Cl)nc(SCC#CCN3CCCC3)c21 [Compound 15a, 2-Chloro-6,8-di(4-N-pyrrolidinylbut-2-ynylthio)-7-methylpurine]	< 1 µg/mL	0.52 µg/mL	3.8 to 4.5 µg/mL (≈ 8 to 9.47 µM)	3.8 to 4.5 µg/mL (≈ 8 to 9.47 µM)	3.63 µg/mL (≈ 7.64 µM)	133 to 135 °C	4.55 µg/mL	3.83 µg/mL	–	–
Cn1c(SCC#CCN2CCCCC2)nc2nc(Cl)nc(SCC#CCN3CCCCC3)c21 [Compound 15b, 2-Chloro-6,8-di(4-N-piperidinylbut-2-ynylthio)-7-methylpurine]	11.6 µg/mL (≈ 23.1 µM)	–	19.1 µg/mL (≈ 37.9 µM)	38.1 µg/mL (≈ 75.7 µM)	5.5 µg/mL (≈ 10.9 µM)	108 to 110 °C	–	–	–	–
Cn1c(SCC#CCN2CCOCC2)nc2nc(Cl)nc(SCC#CCN3CCOCC3)c21 [Compound 15c, 2-Chloro-6,8-di(4-N-morpholinylbut-2-ynylthio)-7-methylpurine]	26.1 µg/mL (≈ 51.5 µM)	–	–	74 µg/mL (≈ 146 µM)	36.4 µg/mL (≈ 71.7 µM)	112 to 113 °C	–	–	relatively weak cytotoxicity	–
Cn1c(SCC#CCN2CCCC2)nc2c1c(=O)[nH]c(=O)n2C [Compound 10a, 8-(4-N-pyrrolidinylbut-2-ynylthio)-3,7-dimethylxanthine]	177 µg/mL (≈ 530 µM)	–	51.1 µg/mL (≈ 153 µM)	472 µg/mL (≈ 1410 µM)	34.3 µg/mL (≈ 103 µM)	195 to 197 °C	–	–	–	–
N.N.[Cl][Pt][Cl] [Cisplatin, cisplatin, reference compound]	–	1.46 µg/mL	–	–	–	–	5.71 µg/mL	11.85 µg/mL	–	1.21 µg/mL
Cn1c(SCC#CCN2CCCCC2)nc2c1c(=O)[nH]c(=O)n2C [Compound 10b, 8-(4-N-piperidinylbut-2-ynylthio)-3,7-dimethylxanthine]	166 µg/mL (≈ 478 µM)	–	355 µg/mL (≈ 1020 µM)	364 µg/mL (≈ 1050 µM)	30.4 µg/mL (≈ 87.5 µM)	223 to 225 °C	–	–	–	–
CCN(CC)CC#CCSc1nc(Cl)nc2ncn(C)c12 [Compound 2c, 2-Chloro-6-(4-diethylaminobut-2-ynylthio)-7-methylpurine]	17.4 µg/mL (≈ 53.7 µM)	–	11.9 µg/mL (≈ 36.7 µM)	48.1 µg/mL (≈ 148 µM)	8.65 µg/mL (≈ 26.7 µM)	117 to 118 °C	–	–	–	–
CCN(CC)CC#CCSc1nc(SCC#CCN(CC)CC)c2c(ncn2C)n1 [Compound 5d, 2,6-Di(4-diethylaminobut-2-ynylthio)-7-methylpurine]	48.9 µg/mL (≈ 110 µM)	–	23.9 µg/mL (≈ 53.7 µM)	38.5 µg/mL (≈ 86.6 µM)	5.95 µg/mL (≈ 13.4 µM)	77 to 79 °C	–	–	–	–
Cn1cnc2nc(SCC#CCN3CCOCC3)nc(SCC#CCN3CCOCC3)c21 [Compound 5c, 2,6-Di(4-N-morpholinylbut-2-ynylthio)-7-methylpurine]	21.5 µg/mL (≈ 45.6 µM)	–	0.35 µg/mL (≈ 0.741 µM)	50.8 µg/mL (≈ 107 µM)	0.37 µg/mL (≈ 0.783 µM)	121 to 123 °C	–	–	–	–
C#CCSc1nc(Cl)nc2nc(SCC#C)n(C)c12 [Compound 14, 2-chloro-6,8-di(prop-2-ynylthio)-7-methylpurine]	–	–	270 µg/mL (≈ 875 µM)	10 µg/mL (≈ 32.4 µM)	20.1 µg/mL (≈ 65.1 µM)	161 to 163 °C	–	–	relatively weak cytotoxicity	–
Cn1cnc2nc(Cl)nc(SCC#CCN3CCOCC3)c21 [Compound 2b, 2-Chloro-6-(4-N-morpholinylbut-2-ynylthio)-7-methylpurine]	35.4 µg/mL (≈ 105 µM)	–	125 µg/mL (≈ 370 µM)	66.3 µg/mL (≈ 196 µM)	20.1 µg/mL (≈ 59.5 µM)	168 to 169 °C	–	–	–	–
